# Laboratory results taken from the NIST ThermoML archive (doi:10.1021/je900302n).
# ± gives the expanded uncertainty stated by the source.
# Conditions: Liquid; pulse heating
Critical pressure [kPa],Critical temperature [K],Compound
610 ± 40,882 ± 18,CCCCCCCCCC[O][Ti]([O]CCCCCCCCCC)([O]CCCCCCCCCC)[O]CCCCCCCCCC [tetra(decyloxy)titanium]
1400 ± 80,647 ± 12,CC[O-].CC[O-].CC[O-].CC[O-].[Ti+4] [tetraethoxytitanium]
780 ± 40,780 ± 16,CCCCCC[O][Ti]([O]CCCCCC)([O]CCCCCC)[O]CCCCCC [tetrakis(hexyloxy)titanium]
910 ± 60,751 ± 16,CCCCC[O][Ti]([O]CCCCC)([O]CCCCC)[O]CCCCC [tetrakis(pentyloxy)titanium]
630 ± 40,855 ± 18,CCCCCCCCC[O][Ti]([O]CCCCCCCCC)([O]CCCCCCCCC)[O]CCCCCCCCC [tetranonoxytitanium]
1150 ± 80,685 ± 14,CCC[O-].CCC[O-].CCC[O-].CCC[O-].[Ti+4] [tetrapropoxytitanium]
1020 ± 60,719 ± 14,CCCC[O-].CCCC[O-].CCCC[O-].CCCC[O-].[Ti+4] [titanium(IV) butan-1-olate]

Compound,Critical pressure [kPa],Critical temperature [K]
CCCCCCC[O][Ti]([O]CCCCCCC)([O]CCCCCCC)[O]CCCCCCC [tetraheptoxytitanium],730 ± 40,808 ± 16
CCCCCCCC[O][Ti]([O]CCCCCCCC)([O]CCCCCCCC)[O]CCCCCCCC [tetraoctoxytitanium],660 ± 40,831 ± 16
